Values of other authors, collected in US20050196503A1, “High-intensity sweetener-polyol compositions” (priority 2004, published 2005).
Residues, ends and D or L forms follow the SMILES beside them.

Conditions: for sweetness strength or sweetening potency, times that of sucrose: in terms of weight ratio; for Approximate sweetness (sucrose = 1): relative to sucrose, weight basis; for sweetness relative to sucrose: percent of the sweetness of sucrose

Compound	sweetness strength or sweetening potency, times that of sucrose	Approximate sweetness (sucrose = 1)	sweetness relative to sucrose [%]
CC1=CC(=O)[N-]S(=O)(=O)O1.[K+] [Acesulfame-K]	about 200 times	200	–
COC(=O)[C@H](Cc1ccccc1)NC(=O)[C@@H](N)CC(=O)O [Aspartame] (H-Asp-Phe-OMe)	about 180 times	180	–
OC[C@@H](O)[C@@H](O)CO [Erythritol]	–	0.7	–
OC[C@@H](O)[C@@H](O[C@@H]1O[C@H](CO)[C@H](O)[C@H](O)[C@H]1O)[C@H](O)[C@@H](O)CO [Lactitol]	–	0.4	–
OC[C@@H](O)[C@@H](O[C@H]1O[C@H](CO)[C@@H](O)[C@H](O)[C@H]1O)[C@H](O)[C@@H](O)CO [Malitol, maltitol]	–	0.9	90
OC[C@@H](O)[C@@H](O)[C@H](O)[C@H](O)CO [Mannitol]	–	0.7	–
COC(=O)[C@H](Cc1ccccc1)NC(=O)[C@H](CC(=O)O)NCCC(C)(C)C [Neotame]	~10,000 times	8,000	–
O=C1NS(=O)(=O)c2ccccc21 [Saccharin]	–	300	–
OC[C@@H](O)[C@@H](O)[C@H](O)[C@@H](O)CO [Sorbitol]	–	0.6	–
OC[C@H]1O[C@H](O[C@]2(CCl)O[C@H](CCl)[C@@H](O)[C@@H]2O)[C@H](O)[C@@H](O)[C@H]1Cl [Sucralose]	–	600	–
OC[C@@H](O)[C@H](O)[C@@H](O)CO [Xylitol]	–	1.0	100
Isomalt [Isomalt (platinit)]	–	0.45-0.65	–
